{
  "source": "patent US20080175880A1",
  "about": "“Pyridoxal-5-Phosphate And Stent For The Treatment And Prevention Of Atherosclerosis And Restenosis” (MEIDCURE INTERNATIONAL INC., priority 2004, published 2008)",
  "key": {"[1]": {"test_system": "wild type HEK 293 cells", "assay": "ATP/BzATP induced apoptosis in wild type control cells", "assay_type": "cell-based, human", "conditions": "wild type cells without P2X7", "experimental": "(§1) Apoptosis—HEK-293 P2X7 (human) cells are treated with ATP and/or BzATP to induce apoptosis (Wen et al., 2003). The level of apoptosis is determined using a Cell Death Detection ELISA, which is based on DNA laddering. Various doses of P5P are added to the cells to determine its ability to inhibit ATP induced apoptosis. OxATP (Murgia et al., 1993), PPADS (Chessell I P et al., 1998) and/or KN-62 (Humphreys B D et al., 1998) are used as positive controls.\nControl—All the experiments are carried out in wild type HEK 293 cells as a control."}, "[2]": {"test_system": "LPS primed THP-1 cells", "assay": "ATP induced IL-1β secretion, ELISA", "assay_type": "cell-based", "conditions": "for inhibition of IL-1β secretion: LPS primed THP-1 cells treated with ATP", "experimental": "LPS primed THP-1 cells are treated with ATP to induced IL-1β secretion (Grahames C B A et-al (1999) Br J Pharm 127:1915-1921). IL-1β secretion levels are determined by ELISA. Various doses of P5P are added to the cells to determine its ability to Inhibit the ATP induced IL-1β secretion. OxATP (Grahames et al., 1999), PPADS (Grahames et al., 1999), and/or KN-62 (Grahames et al., 1999) are used as positive controls."}, "[3]": {"test_system": "HEK 293 P2X7 cells", "assay": "ATP/BzATP induced apoptosis, Cell Death Detection ELISA", "assay_type": "cell-based, human", "conditions": "for induction of cell apoptosis: P2X7 expressing cells", "experimental": "Cell Lines—HEK 293 cell line (human), is stabily transfected with the P2X7 receptor [9] to produce HEK 293 P2X7 cells.\nas §1"}, "[4]": {"test_system": "freshly isolated adult rat cardiomyocytes", "conditions": "previous finding of the inventors (refs 89, 93); cited from earlier work"}, "[5]": {"test_system": "hepatic cytochrome enzymes", "assay": "Inhibition of hepatic cytochrome enzymes", "assay_type": "in vitro ADME"}, "[6]": {"assay": "Rabbit aortic balloon-injury model", "assay_type": "in vivo", "conditions": "10 mg/kg daily by gavage", "experimental": "Rabbit Aortic Balloon-Injury Model—Forty male New Zealand White rabbits (2.5-3.0 kg) are used. Rabbits are fed regular rabbit chow (control, 20 rabbits) or a 1% cholesterol diet (treated, 20 rabbits) for 8 weeks. Half of each group receives 10 mg/kg P5P (provided by CanAm Bioresearch Inc.) daily by gavage, with the other half receiving saline by gavage. After 4 weeks, a 3F Fogarty embolectomy catheter (Baxter) is inserted into the right femoral artery of each rabbit, advanced 25 cm proximally, and then withdrawn to the origin with the balloon inflated to 0.2 mL saline, a step repeated twice (Lau et al., Probucol promotes functional reendothelialization in balloon-injured rabbit aortas. Circulation 2003; 107(15):2031-6). At 8 weeks, the right and left femoral arteries are harvested from each animal (left femoral arteries serve as uninjured controls). Segments for histology are pressure-perfused with formalin, stored in. 70% (vol/vol) ethanol, and then embedded in paraffin.\nHistology—One 5 μm thick cross-section is taken from each of 6 segments of the femoral aorta and stained with hematoxylin and eosin. Morphometric analysis of the 6 arterial cross-sections per animal is performed using Imagespace software (Molecular Dynamics). The intimal and medial areas of each arterial cross-section specimen is measured, and the average intimal/medial area ratio is determined for each group.\nInflammatory Markers, Lipid Profile, and Homocysteine Levels—At the beginning and end of the study, and every 2 weeks throughout, blood samples are collected through a catheter inserted in the ear artery of conscious rabbits. Plasma interleukin-6 (IL-6) levels are measured with quantitative sandwich enzyme immunoassay employing commercial kits for rats (R&D Systems) (Oubina et al., Synergistic effect of angiotensin-converting enzyme (ACE) and 3-hydroxy-3-methylglutaryl-CoA (HMG-CoA) reductase inhibition on inflammatory markers in atherosclerotic rabbits. Clin Sci (Lond). 2003; 105(6):655-62). CRP plasma levels are measured with an immunoassay kit for rabbits (Alpco Diagnostics). Plasma cholesterol levels are measured using colorimetric reactions employing commercial kits (Roche Diagnostics). Homocysteine levels are determined by high performance liquid chromatography, as previously described (Zhloba and Blashko, Liquid chromatographic determination of total homocysteine in blood plasma with photometric detection. J Chromatogr B Analyt Technol Biomed Life Sci. 2004; 800(1-2):275-80).\nEvaluation of Endothelial Function by Ultrasound—Ultrasound evaluation of endothelial function of the femoral aorta is performed at the beginning and end of the study, and every 2 weeks throughout (Drolet et al., Early endothelial dysfunction in cholesterol-fed rabbits: a non-invasive in vivo ultrasound study. Cardiovasc Ultrasound. 2004; 2(1):10). Rabbits are sedated using midazolam (0.5 mg/kg), butorphanol (0.5 mg/kg) and ketamine (30 mg/kg) IM. Marginal ear vein and artery are cannulated for drug infusions and arterial blood pressure monitoring, respectively. Heart rate is monitored continuously throughout the procedure. […]\nOnce the imaging of the aorta is optimal, the animals receive the following drug perfusions I.V. sequentially for 2 minutes each: 1) saline at 1 ml/min; 2) acetylcholine (Ach) at 0.05 μg/ml/min and Ach at 0.5 μg/ml/min. […] Images of the femoral aorta are recorded continuously through the entire procedure on standard S-VHS videotape for off-line analysis. […]"}, "[7]": {"assay": "Tolerability and toxicity in animal and human studies", "assay_type": "in vivo"}, "[8]": {"test_system": "isolated perfused rat hearts", "conditions": "previous finding of the inventors (refs 89, 90); cited from earlier work"}, "[9]": {"test_system": "human platelet", "conditions": "cited from earlier work"}, "[10]": {"assay": "Double-blind placebo-controlled trial in PCI (angioplasty) patients", "assay_type": "in vivo, human", "experimental": "Study Design and Population—The study is a multicenter, double-blind, placebo-controlled, randomized trial. The protocol is approved by institutional review boards prior to commencement. Patients referred for elective percutaneous coronary interventional (PCI) are evaluated 14 days before their scheduled procedures. Eligible patients are asked to provide written informed consent and undergo medical history, physical examination, electrocardiography, hematology, and clinical biochemistry. Patients are eligible if they are scheduled to undergo PCI with or without stenting on one native coronary artery and have one de novo target lesion with luminal narrowing 50%. Subjects who have severe liver disease or serum creatinine 200 μmol/L; myocardial infarction within the past 7 days; left main stenosis >50%; ejection fraction <30%; have had PCI for another lesion in the preceding 6 months; are being treated for a restenotic lesion; or have scheduled atherectomy, brachytherapy, or PCI of a bypass graft before randomization are excluded. A total of 120 patients are enrolled, with 60 randomized to receive P5P and 60 to receive placebo.\nThe primary endpoint is clinical restenosis requiring target lesion revascularization at six months. The secondary end points are major adverse cardiac events (MACE) including death, myocardial infarction and revascularization.\nRandomization and Drug Regimen—Patients are randomly assigned to receive P5P (provided by CanAm Bioresearch Inc.) 750 mg once day or placebo beginning 14 days before scheduled PCI. P5P or matched placebo is administered as 3 tablets given once daily. All patients will also receive an extra dose of P5P or matched placebos on the evening before PCI, according to random treatment assignment. After PCI, all patients are maintained on their assigned study regimen for 4 additional weeks.\nPCI and Follow-Up Evaluation—PCI with or without stent placement and post-PCI management will be performed according to current clinical practice. ECGs are obtained before PCI, immediately thereafter, and the morning after PCI. Creatine kinase, creatine kinase-MB fraction, and troponin I are measured on the evening after PCI and the following morning. Patients are discharged after PCI with 4 weeks of the study medication. Aspirin 325 mg/d is given from the time of recruitment and for the entire study duration. All-patients treated with stents also receive clopidogrel 75 mg/d for 30 days after PCI. Patients will return at 1 Month, 3 months and 6 months for clinical evaluation and drug accountability. Patients are assessed for ischemic symptoms and adverse events, whether or not they were related to the study medication or PCI procedure. Blood chemistry values assessed at baseline are measured again at PCI discharge and at follow-up visits. Patients are readmitted for follow-up catheterization and IVUS 5 to 7 months after PCI. […]\nIVUS Examinations and Measurements—IVUS examinations are performed with 30-MHz, 3.2 F ultrasound catheters (Tardif et al., Canadian Antioxidant Restenosis Trial (CART-1) Investigators. Effects of AGI-1067 and probucol after percutaneous coronary interventions. Circulation. 2003; 107(4):552-8). IVUS studies are recorded before, PCI whenever possible and are always performed after PCI (after final balloon inflation) and at follow-up (before any subsequent intervention). […] The preintervention, post-PCI, and follow-up studies are analyzed side by side. […]"}, "[11]": {"conditions": "cited from earlier work"}, "[12]": {"conditions": "750 mg once a day from 14 days before to 4 weeks after PCI"}},
  "data": [
    {"molecule": "Nc1ncnc2c1ncn2[C@@H]1O[C@H](COP(=O)(O)OP(=O)(O)OP(=O)(O)O)[C@@H](O)[C@H]1O", "note": "[ATP, adenosine triphosphate]", "values": [
      {"measurement": "induction of cell apoptosis", "setting": "[1]", "result": "do not induce"},
      {"measurement": "induction of IL-1β secretion", "setting": "[2]; LPS primed THP-1 cells", "result": "induces"},
      {"measurement": "induction of cell apoptosis", "setting": "[3]", "result": "induce"}
    ]},
    {"molecule": "CN([C@@H](Cc1ccc(OS(=O)(=O)c2cccc3cnccc23)cc1)C(=O)N1CCN(c2ccccc2)CC1)S(=O)(=O)c1cccc2cnccc12", "note": "[KN-62]", "values": [
      {"measurement": "inhibition of IL-1β secretion", "setting": "[2]", "result": "inhibits"}
    ]},
    {"molecule": "Nc1ncnc2c1ncn2[C@@H](C=O)O[C@@H](C=O)COP(=O)(O)OP(=O)(O)OP(=O)(O)O", "note": "[OxATP]", "values": [
      {"measurement": "inhibition of IL-1β secretion", "setting": "[2]", "result": "inhibits"}
    ]},
    {"molecule": "Cc1nc(N=Nc2ccc(S(=O)(=O)O)cc2S(=O)(=O)O)c(COP(=O)(O)O)c(C=O)c1O", "note": "[PPADS]", "values": [
      {"measurement": "inhibition of IL-1β secretion", "setting": "[2]", "result": "inhibits"}
    ]},
    {"molecule": "Cc1ncc(COP(=O)(O)O)c(C=O)c1O", "note": "[P5P, Pyridoxal-5′-phosphate]", "values": [
      {"measurement": "inhibition of ATP induced calcium influx", "setting": "[4]", "result": "inhibits"},
      {"measurement": "inhibition of hepatic cytochrome enzymes", "setting": "[5]", "result": "does not inhibit"},
      {"measurement": "CRP levels", "setting": "[6]; 8 weeks", "result": "lowered"},
      {"measurement": "homocysteine levels", "setting": "[6]; 8 weeks", "result": "lowered"},
      {"measurement": "lipid profile", "setting": "[6]; 8 weeks", "result": "improved"},
      {"measurement": "incidence of restenosis", "setting": "[6]; balloon injury", "result": "decreased incidence"},
      {"measurement": "endothelial function", "setting": "[6]; ultrasound", "result": "improved"},
      {"measurement": "tolerability", "setting": "[7]", "result": "easily tolerated"},
      {"measurement": "toxicity", "setting": "[7]", "result": "low toxicity"},
      {"measurement": "inhibition of positive inotropic effects of ATP", "setting": "[8]", "result": "inhibits"},
      {"measurement": "inhibition of IL-1β secretion", "setting": "[2]", "result": "inhibits"},
      {"measurement": "inhibition of prostaglandin E1 and theophylline-induced platelet aggregation", "setting": "[9]; in vitro (ref 123)", "result": "inhibit"},
      {"measurement": "inhibition of platelet aggregation and 14C-5HT release", "setting": "[9]; induced by ADP, thrombin, adrenaline, platelet activating factor, arachidonic acid, in vitro (ref 122)", "result": "inhibit"},
      {"measurement": "inhibition of thromboxane B2 generation", "setting": "[9]; induced by all of these agents except arachidonic acid (ref 122)", "result": "inhibited"},
      {"measurement": "inhibition of ATP mediated cell apoptosis", "setting": "[3]; P2X7 expressing HEK 293 cells, vs untreated cells", "result": "inhibits"},
      {"measurement": "CRP levels", "setting": "[10]; [12]", "result": "lowered"},
      {"measurement": "homocysteine levels", "setting": "[10]; [12]", "result": "lowered"},
      {"measurement": "incidence of restenosis following PCI", "setting": "[10]; [12]", "result": "decreased incidence"},
      {"measurement": "lipid profile", "setting": "[10]; [12]", "result": "improved"},
      {"measurement": "endothelial function", "setting": "[10]; 750 mg once a day, brachial artery ultrasound", "result": "improved"}
    ]},
    {"molecule": "Cc1ncc(CO)c(CO)c1O", "note": "[pyridoxine]", "values": [
      {"measurement": "plasma antithrombin III (AT III) activity", "setting": "[11]; atherosclerotic patients (ref 16)", "result": "significantly increased"},
      {"measurement": "AT III activity", "setting": "[11]; patients with genetic homocysteinuria (ref 125)", "result": "increase"},
      {"measurement": "bleeding time", "setting": "[11]; patients, 100 mg twice daily for 15 days (ref 124)", "result": "significantly prolonged"},
      {"measurement": "platelet aggregation induced with ADP or epinephrine", "setting": "[11]; plasma from patients, 100 mg twice daily for 15 days (ref 124)", "result": "significantly inhibited"}
    ]},
    {"molecule": "BzATP", "values": [
      {"measurement": "induction of cell apoptosis", "setting": "[1]", "result": "do not induce"},
      {"measurement": "induction of cell apoptosis", "setting": "[3]", "result": "induce"}
    ]}
  ]
}
